Several values for one entry are separate records, joined by “and”; a condition that tells them apart may be missing. Equal entries are not always repeated. Where two headings read alike, the source gives them in different places.
Key:
[1] = system: FGFR1-amplified H520 non-small cell lung cancer cells; experiment: Cell proliferation assay (SRB); type: cell-based; details: Homo sapiens, NCI-H520, 168 h, read-out: Cellular Anti-proliferative IC50, H520
[2] = system: FGFR2-amplified SUM52 breast cancer cells; experiment: Cell proliferation assay (SRB); type: cell-based; details: SUM52, 120 h, read-out: Cellular Anti-proliferative IC50, SUM52, 5 days drug exposure
[3] = system: FGFR3-amplified SW780 bladder cancer cells; experiment: Cell proliferation assay (SRB); details: Homo sapiens, SW780, 120 h
[4] = system: FGFR1 in H520 cells (phospho-ERK1/2); experiment: Drug washout Western blot assay, H520 cells; type: cell-based; details: for exposure concentration for irreversible inhibition (fully covalently bind the target) in cells: H520 (FGFR1), 30 minute exposure; for inhibition of phosphorylation of ERK1/2, no washout / phospho-ERK1/2 after extensive drug washout: 30 min; for inhibition of phosphorylation of ERK1/2, no washout: then FGF-stimulation; for phospho-ERK1/2 after extensive drug washout: washout prior to FGF-stimulation; for reversible or irreversible inhibition of FGFR1 in cells: with and without washout
[5] = system: FGFR4-amplified Hep3B hepatocellular carcinoma cells; experiment: Cell proliferation assay (SRB); type: cell-based; details: Homo sapiens, Hep3B; read-out: Cellular Anti-proliferative IC50, Hep3B
[6] = system: FGFR3 in SW780 cells (phospho-ERK1/2); experiment: Drug washout Western blot assay, SW780 cells; type: cell-based; details: for exposure concentration for irreversible inhibition (fully covalently bind the target) in cells: SW780 (FGFR3), 30 minute exposure; for inhibition of phosphorylation of ERK1/2, no washout / phospho-ERK1/2 after extensive drug washout / reversible or irreversible inhibition of FGFR3 in cells: SW780; for inhibition of phosphorylation of ERK1/2, no washout / phospho-ERK1/2 after extensive drug washout: 30 min; for inhibition of phosphorylation of ERK1/2, no washout: then FGF-stimulation; for phospho-ERK1/2 after extensive drug washout: washout prior to FGF-stimulation; for reversible or irreversible inhibition of FGFR3 in cells: with and without washout
[7] = system: FGFR2 in SUM52 cells (phospho-ERK1/2); experiment: Drug washout Western blot assay, SUM52 cells; type: cell-based; details: for exposure concentration for irreversible inhibition (fully covalently bind the target) in cells: SUM52 (FGFR2), 30 minute exposure; for inhibition of phosphorylation of ERK1/2, no washout / phospho-ERK1/2 after extensive drug washout: 30 min; for inhibition of phosphorylation of ERK1/2, no washout: then FGF-stimulation; for phospho-ERK1/2 after extensive drug washout: washout prior to FGF-stimulation
Protocol: Cells were seeded on the day prior to drug treatment (1 million cells/well; 6-well plate).
Drug stocks were prepared in media using 1 mM or 10 mM DMSO stock solutions. Media was aspirated from each well and replaced with 2 ml of drug-free media for control wells or 2 ml of diluted drug for treated wells. Cells were exposed to drug for 30 min. Recombinant FGF (50 ng/well) was added to each well 15 minutes prior to the end of the drug exposure and protein was extracted as below.
Cells were exposed to drug for 30 min as above. Media was aspirated and each well was washed with 5 ml drug-free media. The wash media was aspirated and replaced with 2 ml drug-free media and cells incubated for a further 30 minutes, after which the wash protocol was repeated. Cells were incubated for a further 90 minutes in drug-free media. Recombinant FGF (50 ng/well) was added to each well 15 minutes prior to the end of the drug-free incubation and protein was extracted as below.
Cell lysates were prepared in 250 μL of RIPA lysis buffer containing protease inhibitor (1:100). After incubation on ice (30 min) and centrifugation (13,000 rpm, 5 min, 4° C.) the supernatants containing the proteins were stored (−20° C.) until required. Bicinchoninic acid (BCA) assay was used to determine the protein concentration of individual cell lysate samples.

[8] = target: T1, recombinant FGFR1 (C584S) kinase domain (Homo sapiens, UniProt P11362, C584S); experiment: FGFR1 (C584S) covalent binding protein mass spectrometry assay; details: protein:inhibitor 1:10, 37° C.
T1 construct: made in house; host or cells: pETDuet vector, IPTG induction in Terrific Broth (bacterial)
Protocol: The previously cloned C488A/C584S FGFR1 construct was modified by site-directed mutagenesis to provide a gene encoding the C584S FGFR1 kinase domain with the cysteine at amino acid C488 reinstated. Expression and purification of this protein followed the protocol described above but with the addition of 10% glycerol to all buffers and a change of buffer pH to a value of 8.5. Protein for mass spectrometry was concentrated to ˜40 mg/ml and was mixed 1:1 (v/v) with glycerol, and then frozen at −20° C. or flash cooled in liquid nitrogen and stored at −80° C. until needed.
Protein samples were buffer exchanged to remove glycerol (the final buffer comprised 20 mM Tris-HCl pH 8.5, 10% (v/v) glycerol, 20 mM NaCl, 5 mM EDTA, 2 mM TCEP) and were mixed with each inhibitor at 1:10 molar ratio (protein:inhibitor). Final protein concentration was 20 μM. […] Samples were mixed with 90 μL of 0.1% formic acid to quench the reaction followed by flash cooling in liquid nitrogen. Samples were stored at −80° C. until needed. All experiments were carried out in triplicate.
Samples were subjected to liquid chromatography mass spectrometry (LC-MS) to show mass changes attributable to irreversible inhibition. Mass spectrometry experiments were performed at the University of Auckland Mass Spectrometry Center using an electropspray QSTAR® XL ESI quadrupole Time-of-Flight (QToF) MS system (Applied Biosystems) operated in positive ionization mode. The instrument was calibrated using Renin Substrate Standard (SCIEX), over the m/z range 100-2000. Protein/inhibitor samples were thawed and 2 μL volumes injected into a liquid chromatography (LC) BIOshell™ A400 Protein C4 HPLC column (10 cm×2.1 mm, 3.4 μm) attached to the mass spectrometer. […] Following elution, samples were directly injected into the mass spectrometer for separation and mass analysis. Mass spectrometry data were processed and analysed using the PeakView™ 2.1 software and the Bio Tool Kit plug-in (SCIEX) and covered an m/z range of 330-1600. Deconvolution calculations allowed visualisation of intact mass protein peaks and allowed peak area measurement to assess the percentage of protein covalently modified by each inhibitor at each time point. Data was plotted using GraphPad Prism 7 (GraphPad).

FGFR4 = target: T2, FGFR4 (Homo sapiens, UniProt P22455); experiment: Isolated enzyme FRET-based Z-Lyte kinase inhibition assay; type: biochemical; details: means from 3 independent experiments; read-out: Isolate Enzyme Inhibition IC50, FGFR4
T2 construct: purchased Invitrogen
Protocol: (§1) FGFR1-4 and the Z-Lyte Kinase Assay Kit were purchased from Invitrogen. The concentration gradients from 5.1×10^−11 to 1.0×10^−6 mol/L were used for all the test compounds. The experiments were performed according to the instructions of the manufacturer.
(§2) FGFR1-4 isolated enzyme activity was determined using the FRET-based Z-Lyte kinase inhibition assay. The data are the means from 3 independent experiments.

FGFR1 = target: T3, FGFR1 (Homo sapiens, UniProt P11362); experiment: as above; type: biochemical; details: means from 3 independent experiments; read-out: Isolate Enzyme Inhibition IC50, FGFR1
T3 construct: purchased Invitrogen
Protocol: as §1, §2

FGFR3 = target: T4, FGFR3 (Homo sapiens, UniProt P22607); experiment: as above; type: biochemical; details: means from 3 independent experiments; read-out: Isolate Enzyme Inhibition IC50, FGFR3
T4 construct: purchased Invitrogen
Protocol: as §1, §2

FGFR2 = target: T5, FGFR2 (Homo sapiens, UniProt P21802); experiment: as above; type: biochemical; details: means from 3 independent experiments; read-out: Isolate Enzyme Inhibition IC50, FGFR2
T5 construct: purchased Invitrogen
Protocol: as §1, §2

panel of 456 kinases = experiment: Biochemical kinase selectivity screening (DiscoveRx KINOMEscan); type: binding
[9] = read-out: Cellular Anti-proliferative IC50, SW780
[10] = H520, 2 hours exposure, 100, 300 and 600 nM

T2 sequence (P22455 22-802): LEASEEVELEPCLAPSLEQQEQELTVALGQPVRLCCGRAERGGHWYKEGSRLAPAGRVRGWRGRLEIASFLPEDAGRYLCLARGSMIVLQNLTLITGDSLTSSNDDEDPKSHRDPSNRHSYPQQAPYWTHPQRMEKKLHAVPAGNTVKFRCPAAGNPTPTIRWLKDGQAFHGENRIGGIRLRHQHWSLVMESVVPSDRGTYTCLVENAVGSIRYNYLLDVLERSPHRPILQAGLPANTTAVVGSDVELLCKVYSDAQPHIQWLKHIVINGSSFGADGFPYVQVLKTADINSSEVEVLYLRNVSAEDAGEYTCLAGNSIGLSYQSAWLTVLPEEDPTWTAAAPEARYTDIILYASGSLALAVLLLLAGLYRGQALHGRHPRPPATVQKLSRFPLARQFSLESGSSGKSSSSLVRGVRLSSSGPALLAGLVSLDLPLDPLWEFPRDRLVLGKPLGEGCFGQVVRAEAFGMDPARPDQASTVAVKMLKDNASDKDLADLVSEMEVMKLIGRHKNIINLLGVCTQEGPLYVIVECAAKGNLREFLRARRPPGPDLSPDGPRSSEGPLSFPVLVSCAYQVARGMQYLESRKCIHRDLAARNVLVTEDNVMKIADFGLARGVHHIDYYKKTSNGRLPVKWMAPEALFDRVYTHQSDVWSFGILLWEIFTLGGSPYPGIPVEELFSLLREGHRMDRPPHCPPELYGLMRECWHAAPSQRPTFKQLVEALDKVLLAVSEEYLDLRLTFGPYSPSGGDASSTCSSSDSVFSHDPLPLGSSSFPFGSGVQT
T3 sequence (P11362 22-822): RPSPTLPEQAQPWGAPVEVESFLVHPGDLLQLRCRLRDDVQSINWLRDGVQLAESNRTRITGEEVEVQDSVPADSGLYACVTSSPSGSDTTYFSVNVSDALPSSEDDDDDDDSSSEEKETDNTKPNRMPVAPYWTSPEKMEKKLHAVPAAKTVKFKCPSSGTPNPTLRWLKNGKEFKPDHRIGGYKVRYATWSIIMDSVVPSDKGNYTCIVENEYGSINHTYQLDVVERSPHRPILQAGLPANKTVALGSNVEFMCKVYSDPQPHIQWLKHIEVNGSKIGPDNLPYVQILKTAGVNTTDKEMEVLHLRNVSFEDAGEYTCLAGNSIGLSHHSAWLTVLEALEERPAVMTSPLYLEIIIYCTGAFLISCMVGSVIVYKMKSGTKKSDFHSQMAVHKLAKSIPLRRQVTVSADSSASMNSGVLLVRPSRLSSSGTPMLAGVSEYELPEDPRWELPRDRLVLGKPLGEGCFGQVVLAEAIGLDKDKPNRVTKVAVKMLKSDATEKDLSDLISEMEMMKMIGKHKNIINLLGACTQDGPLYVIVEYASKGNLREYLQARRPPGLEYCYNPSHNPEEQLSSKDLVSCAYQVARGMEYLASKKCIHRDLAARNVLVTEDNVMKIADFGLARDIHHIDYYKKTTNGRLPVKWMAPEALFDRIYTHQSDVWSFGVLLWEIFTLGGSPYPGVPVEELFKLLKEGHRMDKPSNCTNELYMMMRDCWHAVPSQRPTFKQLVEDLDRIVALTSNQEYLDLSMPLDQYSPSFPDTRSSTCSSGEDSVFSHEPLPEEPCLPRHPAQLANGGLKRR
T1 sequence (P11362 with tags, fused parts or gaps C584S): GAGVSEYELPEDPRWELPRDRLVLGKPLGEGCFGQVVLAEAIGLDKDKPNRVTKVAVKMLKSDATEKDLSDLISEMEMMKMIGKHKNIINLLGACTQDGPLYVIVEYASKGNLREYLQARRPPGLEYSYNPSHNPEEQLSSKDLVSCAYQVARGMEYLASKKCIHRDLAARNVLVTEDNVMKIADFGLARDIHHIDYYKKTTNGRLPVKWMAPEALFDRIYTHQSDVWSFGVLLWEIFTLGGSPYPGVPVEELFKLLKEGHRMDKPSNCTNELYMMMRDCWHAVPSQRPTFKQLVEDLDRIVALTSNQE
T4 sequence (P22607 23-806): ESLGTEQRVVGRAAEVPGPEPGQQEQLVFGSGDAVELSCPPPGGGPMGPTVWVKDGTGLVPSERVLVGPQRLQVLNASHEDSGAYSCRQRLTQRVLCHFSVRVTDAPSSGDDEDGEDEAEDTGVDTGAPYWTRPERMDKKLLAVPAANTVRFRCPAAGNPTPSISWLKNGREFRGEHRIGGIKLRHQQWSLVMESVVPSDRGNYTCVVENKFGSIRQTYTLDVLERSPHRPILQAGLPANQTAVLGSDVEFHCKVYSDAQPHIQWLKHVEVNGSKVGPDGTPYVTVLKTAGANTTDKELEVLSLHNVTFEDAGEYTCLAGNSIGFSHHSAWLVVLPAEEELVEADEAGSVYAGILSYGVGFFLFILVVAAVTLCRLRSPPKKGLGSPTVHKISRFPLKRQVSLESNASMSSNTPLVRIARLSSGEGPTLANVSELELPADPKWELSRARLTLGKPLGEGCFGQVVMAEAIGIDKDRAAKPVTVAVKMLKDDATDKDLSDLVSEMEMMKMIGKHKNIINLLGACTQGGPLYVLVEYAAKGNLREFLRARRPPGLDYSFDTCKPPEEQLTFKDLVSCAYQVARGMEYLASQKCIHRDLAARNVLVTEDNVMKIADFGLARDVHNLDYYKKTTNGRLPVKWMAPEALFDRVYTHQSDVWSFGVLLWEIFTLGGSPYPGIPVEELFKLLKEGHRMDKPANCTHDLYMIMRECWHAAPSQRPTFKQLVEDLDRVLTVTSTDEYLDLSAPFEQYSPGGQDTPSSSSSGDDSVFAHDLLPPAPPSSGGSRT
T5 sequence (P21802 22-821): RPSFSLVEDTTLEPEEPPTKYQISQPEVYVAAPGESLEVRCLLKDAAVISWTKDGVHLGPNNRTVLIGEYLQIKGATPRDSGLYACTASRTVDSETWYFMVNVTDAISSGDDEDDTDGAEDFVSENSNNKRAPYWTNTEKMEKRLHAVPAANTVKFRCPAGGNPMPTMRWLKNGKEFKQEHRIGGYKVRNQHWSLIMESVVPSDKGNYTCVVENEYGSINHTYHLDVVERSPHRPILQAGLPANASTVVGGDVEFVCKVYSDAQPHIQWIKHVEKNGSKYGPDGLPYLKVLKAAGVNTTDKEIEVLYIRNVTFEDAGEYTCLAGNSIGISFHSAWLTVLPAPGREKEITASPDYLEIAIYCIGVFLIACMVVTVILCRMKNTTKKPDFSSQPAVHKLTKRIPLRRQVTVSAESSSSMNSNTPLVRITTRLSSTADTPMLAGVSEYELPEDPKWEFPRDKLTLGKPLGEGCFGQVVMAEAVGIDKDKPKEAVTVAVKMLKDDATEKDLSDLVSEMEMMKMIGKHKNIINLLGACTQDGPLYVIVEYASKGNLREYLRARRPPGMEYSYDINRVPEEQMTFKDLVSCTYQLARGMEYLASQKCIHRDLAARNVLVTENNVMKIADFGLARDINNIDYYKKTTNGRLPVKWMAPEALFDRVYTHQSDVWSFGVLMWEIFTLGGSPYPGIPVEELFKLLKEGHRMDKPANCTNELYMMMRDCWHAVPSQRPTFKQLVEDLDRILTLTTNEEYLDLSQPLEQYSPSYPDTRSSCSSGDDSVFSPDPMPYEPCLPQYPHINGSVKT

| SMILES | IC50 [1] | IC50 [2] | IC50 [3, 9] | exposure concentration for irreversible inhibition (fully covalently bind the target) in cells [4] | inhibition of phosphorylation of ERK1/2, no washout ([4]; H520, 100 nM) | phospho-ERK1/2 after extensive drug washout ([4]; H520, 100 nM) | phospho-ERK1/2 after extensive drug washout ([4]; H520, 1000 nM) | IC50 [5] | exposure concentration for irreversible inhibition (fully covalently bind the target) in cells [6] | inhibition of phosphorylation of ERK1/2, no washout ([6]; 100 nM) | phospho-ERK1/2 after extensive drug washout ([6]; 100 nM) | phospho-ERK1/2 after extensive drug washout ([6]; 1000 nM) | reversible or irreversible inhibition of FGFR3 in cells ([6]; 120 minutes exposure, 100 nM) | exposure concentration for irreversible inhibition (fully covalently bind the target) in cells [7] | inhibition of phosphorylation of ERK1/2, no washout ([7]; SUM52, 100 nM) | phospho-ERK1/2 after extensive drug washout ([7]; SUM52, 100 nM) | phospho-ERK1/2 after extensive drug washout ([7]; SUM52, 1000 nM) | % Conversion to FGFR1 (C584S) covalent adduct after 120 minutes incubation [8] | IC50 (FGFR4) | IC50 (FGFR1) | other results |
| --- | --- | --- | --- | --- | --- | --- | --- | --- | --- | --- | --- | --- | --- | --- | --- | --- | --- | --- | --- | --- | --- |
| COc1cc(OC)c(Cl)c(N2Cc3cnc(Nc4ccccc4)nc3N([C@H]3CCN(C(=O)/C=C/CN(C)C)C3)C2=O)c1Cl [Compound 106, (S,E)-3-(2,6-dichloro-3,5-dimethoxyphenyl)-1-(1-(4-(dimethylamino)but-2-enoyl)pyrrolidin-3-yl)-7-(phenylamino)-3,4-dihydropyrimido[4,5-d]pyrimidin-2(1H)-one] | 11 nM | 0.5 nM | 5 nM | 100 nM | complete inhibition | fully inhibited | essential full inhibition | 5.5 nM | 100 nM | complete inhibition | fully inhibited | essential full inhibition | irreversible | 100 nM | complete inhibition | fully inhibited | essential full inhibition | 11% | < 100 nM and 94 nM | 1.1 nM | reversible or irreversible inhibition of FGFR1 in cells ([4]; H520, 30 min exposure, 100 nM): potent irreversible inhibitor; reversible or irreversible inhibition of FGFR3 in cells ([6]; 30 min exposure, 100 nM): potent irreversible inhibitor; reversible or irreversible inhibition of FGFR2 in cells ([7]; SUM52, 30 min exposure, 100 nM, with and without washout): potent irreversible inhibitor; IC50 (FGFR3): 17 nM; IC50 (FGFR2): 26 nM |
| COc1cc(OC)c(Cl)c(N2Cc3cnc(NC(C)C)nc3N([C@H]3CCN(C(=O)/C=C/CN(C)C)C3)C2=O)c1Cl [Compound 104, (S,E)-3-(2,6-dichloro-3,5-dimethoxyphenyl)-1-(1-(4-(dimethylamino)but-2-enoyl)pyrrolidin-3-yl)-7-(isopropylamino)-3,4-dihydropyrimido[4,5-d]pyrimidin-2(1H)-one] | 17 nM | 1.4 nM | 11 nM | 1000 nM | complete inhibition | restoration | essential full inhibition | 12 nM | 1000 nM | complete inhibition | restoration | essential full inhibition | reversible | 1000 nM | complete inhibition | restoration | essential full inhibition | 8% | 906 nM | 1.1 nM | reversible or irreversible inhibition of FGFR1 in cells [4, 10]: potent, irreversible inhibition; concentration required to suppress FGFR1 signalling through phospho-ERK1/2 ([4]; H520, 2 hours exposure, tested at 100, 300 and 600 nM): 300 nM; IC50 (FGFR3): 35 nM; IC50 (FGFR2): 23 nM |
| COc1cc(OC)c(Cl)c(N2Cc3cnc(Nc4ccc(F)cc4)nc3N(C3CCN(C(=O)/C=C/CN(C)C)CC3)C2=O)c1Cl [Compound 120, (E)-3-(2,6-dichloro-3,5-dimethoxyphenyl)-1-(1-(4-(dimethylamino)but-2-enoyl)piperidin-4-yl)-7-((4-fluorophenyl)amino)-3,4-dihydropyrimido[4,5-d]pyrimidin-2(1H)-one] | 8.7 nM | 0.8 nM | – | – | – | – | – | – | – | – | – | – | – | – | – | – | – | – | – | – | IC50 ([3]; read-out: Cellular Anti-proliferative IC50, SW780, 5 days drug exposure): 16 nM; reversible or irreversible inhibition of FGFR1 in cells [4, 10]: potent, irreversible inhibition; share of the non-mutant kinases studied with Percent Control <35 (panel of 456 kinases; 1 uM, 33/403 kinases): 8.2%; selectivity for the FGFR family (panel of 456 kinases; panel of 456 kinases): excellent selectivity; S(35) selectivity score (panel of 456 kinases; set concentration of 1 uM): 0.082 |
